# Key:
# [1] = system: MDM2 in WD/DDLS tumor biopsies; experiment: MDM2 in pre- and post-treatment patient biopsies by immunoblot; type: in vivo, human
# Experimental: FIG. 7. […] GAPDH serves as a loading control.
# Antibodies against CDK4 (3F121), MDM2 (N-20 and SMP14), total RB (IF8), Cyclin A (H432), p16 (C20), p53 (DO-1 and Bp53-12), tubulin (C20) and FLAG (M2) were obtained from Santa Cruz Biotechnology, phospho-Rb 780 (#9307) from Cell Signalling, and ARF (3642) from Abeam, HAUSP (A300-033A) from Bethyl Laboratories. Treated cells were lysed with buffer composed of 50 mM Tris-HCl, pH7.4, 250 mM NaCl, 5 mM EDTA, 0.5% NP40, 2 mM PMSF, and supplemented with protease inhibitors. Eighty micrograms of protein were resolved by SDS-PAGE and transferred to PVDF membranes. Membranes were incubated overnight with antibodies (1:1000). […] Pre-treatment biopsies were collected within two weeks of the first dose and post-treatment biopsies collected after at last three weeks of treatment. […] Tumor response was assessed by reference radiologist by CT scan every six weeks for 36 weeks, and every 12 weeks thereafter.
# Extracts were prepared in 50 mM Tris-HCl, pH7.4, 150 mM NaCl, 1 mM EDTA, 1% NP40, 0.25% sodium deoxycholate and supplemented with mini-protease inhibitor cocktail (Roche). Tumor response was assessed by reference radiologist by CT scan every six weeks for 36 weeks, and every 12 weeks thereafter.
# [2] = system: HAUSP in WD/DDLS cell lines; experiment: HAUSP levels by immunoblot; type: cell-based, human; conditions: 2 days of treatment
# Experimental: FIG. 25A-D. Turnover of MDM2 is regulated post-translationally. […] Extracts were prepared and MDM2 was immunoprecipitated and the presence of HAUSP and MDM2 in the precipitates were determined by immunoblot. IgG was used as a non-specific antibody control for the immunoprecipitation. […] Tubulin is a loading control. HAUSP levels were reduced with shRNA in the indicated cells lines and the effect on protein expression (C) and the accumulation of senescence-associated (3-galactosidase positive cells measured (D). The mean and standard deviation was compiled from at least two independent experiments with each cell line and a representative immunoblot is shown.
# [3] = system: LS8107, LS7785-10, LS7785-1 and LS8313 cells; experiment: SA-β-gal and SAHF (HP1γ) senescence staining, non-responder lines; type: cell-based, human; conditions: LS7785-1, LS7785-10, LS8107 and LS8313; even at ten-fold increased concentration
# Source text: Mean percentage standard deviation). […] (A) Senescence-associated β-galactosidase and (B) HP1γ staining for senescence associated heterochromatic foci (SAHF) formation was quantitated for three or more independent experiments for each cell line. […] Representative phase contrast micrographs of cells stained for SA-β-gal or immunofluorescence staining for HP1γ in two of the cell lines before (ctrl) and after (PD) drug treatment are shown in the insets of FIGS. 2A and 2B, respectively. (C) BrdU incorporation. […] Error bars represent the standard deviation of the mean calculated from three independent trials. […] Cell number was quantitated by DAPI staining and β-galactosidase staining quantitated as a proportion of total cells. Senescence associated heterochromatic foci were quantitated after cells were fixed with 4% paraformaldehyde, permeabilized with 0.1% Triton, blocked with 2% FBS, and stained with antibodies against HP1γ (1:5000 dilution, 2MOD-1G6 Millipore). Senescent cells were identified by immunofluorescence after treatment of slides with anti-mouse secondary antibodies and quantitation of focal SAHF as a percent of total cells (Leica Upright Confocal SP5 confocal microscope). […] Cell area was measured by with Metamorph software to calculate relative area per cell.
# RB-positive WD/DDLS = conditions: two patients with RB-positive WD/DDLS; cited from earlier work
# [4] = system: MDM2 in MCF7 breast cancer cells; experiment: MDM2 expression by immunoblot; type: cell-based
# Experimental: (§1) Antibodies against CDK4 (3F121), MDM2 (N-20 and SMP14), total RB (IF8), Cyclin A (H432), p16 (C20), p53 (DO-1 and Bp53-12), tubulin (C20) and FLAG (M2) were obtained from Santa Cruz Biotechnology, phospho-Rb 780 (#9307) from Cell Signalling, and ARF (3642) from Abeam, HAUSP (A300-033A) from Bethyl Laboratories. Treated cells were lysed with buffer composed of 50 mM Tris-HCl, pH7.4, 250 mM NaCl, 5 mM EDTA, 0.5% NP40, 2 mM PMSF, and supplemented with protease inhibitors. Eighty micrograms of protein were resolved by SDS-PAGE and transferred to PVDF membranes. Membranes were incubated overnight with antibodies (1:1000). […] Cycles were repeated every four weeks and patients are still on trial. Pre-treatment biopsies were collected within two weeks of the first dose and post-treatment biopsies collected after at last three weeks of treatment. Extracts were prepared in 50 mM Tris-HCl, pH7.4, 150 mM NaCl, 1 mM EDTA, 1% NP40, 0.25% sodium deoxycholate and supplemented with mini-protease inhibitor cocktail (Roche). Tumor response was assessed by reference radiologist by CT scan every six weeks for 36 weeks, and every 12 weeks thereafter. The clinical trial was approved by the Institutional Review Board of Memorial Sloan-Kettering Cancer Center and all patients provided written informed consent (NCT01209598).
# [5] = system: MDM2 in SNB19 glioma cells; experiment: MDM2 expression by immunoblot; type: cell-based
# Experimental: as §1
# [6] = system: MDM2 in T98G glioma cells; experiment: MDM2 expression by immunoblot; type: cell-based
# Experimental: as §1
# [7] = system: MDM2 in DBTRG-05MG glioma cells; experiment: MDM2 expression by immunoblot; type: cell-based
# Experimental: as §1
# [8] = system: MDM2 in DKMG glioma cells; experiment: MDM2 expression by immunoblot; type: cell-based
# Experimental: as §1
# [9] = system: p27 in responder and non-responder cells; experiment: p27 levels by immunoblot; type: cell-based, human
# Source text: FIG. 22. Additional immunoblot analysis in responder and non-responder cells. […] Actin is a loading control. This experiment was repeated at least three times for each cell line.
# [10] = ratio of MDM2 detected by Image J scanning in treated versus untreated cultures
compound,measurement,setting,value
CC(=O)c1c(C)c2cnc(Nc3ccc(N4CCNCC4)cn3)nc2n(C2CCCC2)c1=O [PD0332991],MDM2 levels in post- versus pre-treatment biopsies,"[1]; patients 1, 4, 7, and 8",reduced
same,MDM2 levels in post- versus pre-treatment biopsies,"[1]; patients 2, 3, and 9",unaffected
same,HAUSP levels,[2],did not change
same,number of SA-β-gal or SAHF positive cells,[3],no increase
same,clinical response,RB-positive WD/DDLS,prolonged stable disease lasting several years
same,MDM2 expression levels reduced compared to the non-treated cells,[4],greater than 34%
same,ΔMDM2 with PD,[4]; [10],0.08
same,MDM2 expression levels reduced compared to the non-treated cells,[5],greater than 34%
same,ΔMDM2 with PD,[5]; [10],0.08
same,MDM2 levels,[6]; cells that did not undergo senescence,unaffected
same,ΔMDM2 with PD,[6]; [10],Not detected
same,MDM2 expression levels reduced compared to the non-treated cells,[7],greater than 34%
same,ΔMDM2 with PD,[7]; [10],0.49
same,MDM2 expression levels reduced compared to the non-treated cells,[8],greater than 34%
same,ΔMDM2 with PD,[8]; [10],0.66
same,p27 levels,[9],unchanged
